Reference: the supplement of paper PMC10307832

Key:
Assay in all cases: relative viability (nuclei count vs DMSO), 5 days (fraction); higher = more cells survive
201T = system: 201T
How it was run: (§1)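 Each reported value is a median over duplicate plates. It expresses relative viability: treated-well nuclei count divided by vehicle-well nuclei count. Lung cancer cell lines in 1536-well plates were dosed by pin tool a day after seeding, alone with one drug or with a fixed anchor-drug dose plus five library-drug doses (not always all listed) in √10 steps, and nuclei were counted after 5 days.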

BEN = system: BEN
How it was run: as §1

CAL-12T = system: CAL-12T
How it was run: as §1

HCC-44 = system: HCC-44
How it was run: as §1

HCC-827 = system: HCC-827
How it was run: as §1

HOP-62 = system: HOP-62
How it was run: as §1

LCLC-103H = system: LCLC-103H
How it was run: as §1

LCLC-97TM1 = system: LCLC-97TM1
How it was run: as §1

LXF-289 = system: LXF-289
How it was run: as §1

NCI-H1395 = system: NCI-H1395
How it was run: as §1

NCI-H1437 = system: NCI-H1437
How it was run: as §1

NCI-H1650 = system: NCI-H1650
How it was run: as §1

NCI-H1793 = system: NCI-H1793
How it was run: as §1

NCI-H1944 = system: NCI-H1944
How it was run: as §1

NCI-H2087 = system: NCI-H2087
How it was run: as §1

NCI-H2228 = system: NCI-H2228
How it was run: as §1

NCI-H2405 = system: NCI-H2405
How it was run: as §1

NCI-H3122 = system: NCI-H3122
How it was run: as §1

NCI-H322M = system: NCI-H322M
How it was run: as §1

NCI-H647 = system: NCI-H647
How it was run: as §1

NCI-H727 = system: NCI-H727
How it was run: as §1

RERF-LC-KJ = system: RERF-LC-KJ
How it was run: as §1

SK-LU-1 = system: SK-LU-1
How it was run: as §1

## O=C(O)c1ccc(-c2c[nH]c3ncc(-c4ccccc4)cc23)cc1C1CCCC1 + O=C(CCCCCCC(=O)Nc1ccccc1)NO [Vorinostat] (partner 1 µM)
201T; first compound 0.04 µM
  relative viability: 0.949
201T; first compound 0.1265 µM
  relative viability: 0.963
201T; first compound 0.4 µM
  relative viability: 0.952
201T; first compound 1.265 µM
  relative viability: 0.989
BEN; first compound 0.04 µM
  relative viability: 0.507
BEN; first compound 0.1265 µM
  relative viability: 0.614
BEN; first compound 0.4 µM
  relative viability: 0.475
BEN; first compound 1.265 µM
  relative viability: 0.505
CAL-12T; first compound 0.04 µM
  relative viability: 0.721
CAL-12T; first compound 0.1265 µM
  relative viability: 0.91
CAL-12T; first compound 0.4 µM
  relative viability: 0.73
CAL-12T; first compound 1.265 µM
  relative viability: 0.668
HCC-44; first compound 0.04 µM
  relative viability: 1.04
HCC-44; first compound 0.1265 µM
  relative viability: 1.06
HCC-44; first compound 0.4 µM
  relative viability: 1.02
HCC-44; first compound 1.265 µM
  relative viability: 0.971
HCC-827; first compound 0.04 µM
  relative viability: 0.372
HCC-827; first compound 0.1265 µM
  relative viability: 0.913
HCC-827; first compound 0.4 µM
  relative viability: 0.815
HCC-827; first compound 1.265 µM
  relative viability: 0.75
HOP-62; first compound 0.04 µM
  relative viability: 0.694
HOP-62; first compound 0.1265 µM
  relative viability: 0.606
HOP-62; first compound 0.4 µM
  relative viability: 0.594
HOP-62; first compound 1.265 µM
  relative viability: 0.48
LCLC-103H; first compound 0.04 µM
  relative viability: 0.777
LCLC-103H; first compound 0.1265 µM
  relative viability: 0.758
LCLC-103H; first compound 0.4 µM
  relative viability: 0.779
LCLC-103H; first compound 1.265 µM
  relative viability: 0.76
LCLC-97TM1; first compound 0.04 µM
  relative viability: 0.876
LCLC-97TM1; first compound 0.1265 µM
  relative viability: 0.94
LCLC-97TM1; first compound 0.4 µM
  relative viability: 0.747
LCLC-97TM1; first compound 1.265 µM
  relative viability: 0.525
LXF-289; first compound 0.04 µM
  relative viability: 0.769
LXF-289; first compound 0.1265 µM
  relative viability: 0.773
LXF-289; first compound 0.4 µM
  relative viability: 0.632
LXF-289; first compound 1.265 µM
  relative viability: 0.398
NCI-H1395; first compound 0.04 µM
  relative viability: 0.7
NCI-H1395; first compound 0.1265 µM
  relative viability: 0.67
NCI-H1395; first compound 0.4 µM
  relative viability: 0.672
NCI-H1395; first compound 1.265 µM
  relative viability: 0.683
NCI-H1437; first compound 0.04 µM
  relative viability: 0.842
NCI-H1437; first compound 0.1265 µM
  relative viability: 0.814
NCI-H1437; first compound 0.4 µM
  relative viability: 0.531
NCI-H1437; first compound 1.265 µM
  relative viability: 0.326
NCI-H1650; first compound 0.04 µM
  relative viability: 0.418
NCI-H1650; first compound 0.1265 µM
  relative viability: 0.513
NCI-H1650; first compound 0.4 µM
  relative viability: 0.538
NCI-H1650; first compound 1.265 µM
  relative viability: 0.476
NCI-H1793; first compound 0.04 µM
  relative viability: 0.835
NCI-H1793; first compound 0.1265 µM
  relative viability: 1.16
NCI-H1793; first compound 0.4 µM
  relative viability: 0.84
NCI-H1793; first compound 1.265 µM
  relative viability: 0.744
NCI-H1944; first compound 0.04 µM
  relative viability: 0.53
NCI-H1944; first compound 0.1265 µM
  relative viability: 0.573
NCI-H1944; first compound 0.4 µM
  relative viability: 0.582
NCI-H1944; first compound 1.265 µM
  relative viability: 0.465
NCI-H2087; first compound 0.04 µM
  relative viability: 0.916
NCI-H2087; first compound 0.1265 µM
  relative viability: 0.924
NCI-H2087; first compound 0.4 µM
  relative viability: 0.611
NCI-H2087; first compound 1.265 µM
  relative viability: 0.465
NCI-H2228; first compound 0.04 µM
  relative viability: 0.831
NCI-H2228; first compound 0.1265 µM
  relative viability: 0.652
NCI-H2228; first compound 0.4 µM
  relative viability: 0.745
NCI-H2228; first compound 1.265 µM
  relative viability: 0.291
NCI-H2405; first compound 0.04 µM
  relative viability: 1.02
NCI-H2405; first compound 0.1265 µM
  relative viability: 1.12
NCI-H2405; first compound 0.4 µM
  relative viability: 0.944
NCI-H2405; first compound 1.265 µM
  relative viability: 0.668
NCI-H3122; first compound 0.04 µM
  relative viability: 1.1
NCI-H3122; first compound 0.1265 µM
  relative viability: 1.07
NCI-H3122; first compound 0.4 µM
  relative viability: 1.12
NCI-H3122; first compound 1.265 µM
  relative viability: 0.855
NCI-H322M; first compound 0.04 µM
  relative viability: 0.909
NCI-H322M; first compound 0.1265 µM
  relative viability: 0.858
NCI-H322M; first compound 0.4 µM
  relative viability: 0.898
NCI-H322M; first compound 1.265 µM
  relative viability: 0.855
NCI-H647; first compound 0.04 µM
  relative viability: 0.645
NCI-H647; first compound 0.1265 µM
  relative viability: 0.47
NCI-H647; first compound 0.4 µM
  relative viability: 0.491
NCI-H647; first compound 1.265 µM
  relative viability: 0.361
NCI-H727; first compound 0.04 µM
  relative viability: 0.991
NCI-H727; first compound 0.1265 µM
  relative viability: 1.19
NCI-H727; first compound 0.4 µM
  relative viability: 1.31
NCI-H727; first compound 1.265 µM
  relative viability: 1.18
RERF-LC-KJ; first compound 0.04 µM
  relative viability: 0.714
RERF-LC-KJ; first compound 0.1265 µM
  relative viability: 0.74
RERF-LC-KJ; first compound 0.4 µM
  relative viability: 0.724
RERF-LC-KJ; first compound 1.265 µM
  relative viability: 0.574
SK-LU-1; first compound 0.04 µM
  relative viability: 0.793
SK-LU-1; first compound 0.1265 µM
  relative viability: 0.717
SK-LU-1; first compound 0.4 µM
  relative viability: 0.684
SK-LU-1; first compound 1.265 µM
  relative viability: 0.364
